Experimental findings from article PMC8085982 (Microbial Biotechnology, 2021) are described below.

In test [1] the test system is Pp4816 laccase. The conditions noted are these: 50 mM Tris-HCl pH 7.2, 24 °C.
Test [2] has as its system Pa5930 laccase. The conditions noted are these: 50 mM Tris-HCl pH 7.2, 24 °C.
Test [3] has as its system Pp4816 laccase. Briefly: initial rates, OD420, sigmoidal. Type of test: biochemical, Pediococcus pentosaceus. The conditions noted are these: 50 mM sodium citrate pH 3.4, 24 °C; sigmoidal kinetics.
Test [4] deals with Pa5930 laccase. As to the kind of experiment: initial rates, OD420, sigmoidal. In kind it is biochemical, Pediococcus acidilactici. The conditions noted are these: 50 mM sodium citrate pH 3.4, 24 °C; sigmoidal kinetics.

Where two headings read alike, the source gives them in different places.

For orientation: Km means the substrate concentration at which the rate is half of its maximum. Consider `COc1cccc(OC)c1O` [2,6-DMP, 2,6‐dimethoxyphenol], for which the Km was 6330 ± 1320 µM in test [1] and 3110 ± 850 µM in test [2].

In the case of `CCn1c(=NN=c2sc3cc(S(=O)(=O)O)ccc3n2CC)sc2cc(S(=O)(=O)O)ccc21` [ABTS, 2,2‐azino‐bis(3‐ethylbenzothiazoline‐6‐sulfonic acid)], the Km in test [3] is 310 ± 30 µM; in test [4] it was 330 ± 40 µM.
